Key:
PS1 fibroblasts [1] = assay: Phospholipid accumulation by LipidTOX; assay type: cell-based, human; conditions: 10 μM, 24 h
APP/PS1 mice = assay type: in vivo, mouse; conditions: p.o., KARI 201 1, 5, or 10 mg⋅kg−1, AMI 100 mg⋅kg−1
ASM [2] = molecular target: T1, ASM (Homo sapiens, UniProt P17405); assay: ASM activity in AD patient; assay type: cell-based; conditions: PS1 fibroblasts, 10 μM, 30 min
T1 sequence (P17405 47-631): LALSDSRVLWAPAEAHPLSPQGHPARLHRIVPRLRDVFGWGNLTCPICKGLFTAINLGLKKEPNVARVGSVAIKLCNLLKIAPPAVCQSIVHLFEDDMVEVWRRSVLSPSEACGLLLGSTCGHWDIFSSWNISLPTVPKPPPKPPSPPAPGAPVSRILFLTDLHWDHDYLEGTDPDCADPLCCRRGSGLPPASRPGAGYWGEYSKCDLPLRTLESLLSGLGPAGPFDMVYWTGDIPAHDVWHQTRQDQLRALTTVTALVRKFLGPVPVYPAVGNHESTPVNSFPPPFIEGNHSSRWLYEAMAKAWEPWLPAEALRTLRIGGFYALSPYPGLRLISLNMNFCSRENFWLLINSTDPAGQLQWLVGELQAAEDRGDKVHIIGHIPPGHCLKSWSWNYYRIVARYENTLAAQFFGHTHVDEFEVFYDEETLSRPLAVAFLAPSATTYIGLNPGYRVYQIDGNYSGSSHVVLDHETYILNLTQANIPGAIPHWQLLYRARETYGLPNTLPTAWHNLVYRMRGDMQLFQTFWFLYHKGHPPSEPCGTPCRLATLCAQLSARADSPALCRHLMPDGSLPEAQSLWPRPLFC

secretory ASM = molecular target: T2, secretory ASM (Homo sapiens, UniProt P17405); assay: Secretory ASM activity in PS1-derived supernatant medium; assay type: biochemical; conditions: P-sup, assay buffer with zinc, 10 μM, 1 h
T2 sequence (P17405 47-631): T1 sequence (P17405 47-631)

ASM [3] = molecular target: T1, ASM; assay: ASM activity after leupeptin preincubation in PS1 fibroblasts; assay type: cell-based; conditions: 25 µM leupeptin 24 h, then compound 30 min
PS1 fibroblasts [4] = assay: Ceramide production in PS1 fibroblasts; assay type: cell-based, human; conditions: 10 μM, 30 min

## CN(C)CCC=C1c2ccccc2CCc2ccccc21 [AMI, amitriptyline]
PS1 fibroblasts [1]
  accumulation of phospholipids (LipidTOX MFI): induced accumulation of phospholipids
APP/PS1 mice
  Survival: not affected
  body weight: not affected
ASM [2]
  ASM activity in cell lysates: efficiently inhibited
Secretory ASM
  secretory ASM activity: did not inhibit ASM activity
ASM [3]
  effect of leupeptin preincubation on ASM inhibition: prevented ASM inhibition
PS1 fibroblasts [4]
  ceramide production: decreased

Reference: article PMC8784098 (Proceedings of the National Academy of Sciences of the …, 2022)
